Laboratory results published in patent US12144840B2, “Method for treating or preventing benign prostatic hyperplasia” (priority 2017, dated 2024).
“And” between values parts separate entries of the source, which are not always exact repeats. Equal values may be shown once. Read-outs that look alike come from different tables or passages of the source. Values belong to the compound of their own block, whether it stands above or below them.

Assays:
[1] = system: testosterone-induced benign prostatic hyperplasia; format: in vivo, male Wistar rats; details: BPH rats; for Ratio (b/a* 100): prostate weight/body weight
Method: (§1) After 6-week-old male Wistar rats (Samtako, Korea) were obtained and acclimated for one week, six animals constituted each test group when each animal weighed 340-350 g.
(§2) As for the test configuration, the animals were divided into groups without testicle removal and groups undergoing […] recovery after testicle removal, and each group was subcutaneously injected with 5 mg/kg testosterone to induce benign prostatic hyperplasia for weeks (BPH induced group). Test groups were constructed by oral administration of Aucklandiae Radix extracts and costunolide at different concentrations (mg/kg) once a day, seven times a week, for 8 weeks.
After the completion of the test, the rats of all the test groups were euthanized, and then prostate tissue and main organs were extracted, and weights and volumes thereof were measured using an electronic scale for animal weights and a caliper (mm^3) (Table 2).

RAW 264.7 cells [2] = assay: Nitric oxide (NO) change in LPS-activated macrophages (Griess reagent); format: cell-based; details: 200 ng LPS, various concentrations, 18 hours, vs LPS alone; dose-dependent (FIG. 1)
Method: (§3) RAW 264.7 cells, which were macrophages used in the present tests, were available from American Type Culture Collection (ATCC). These cells were cultured in CO2 incubator (Formascientific, Inc.) using DMEM containing 10% fetal bovine serum (FBS). The differentiation of cells was observed through microscopic observation, and then the cells were used in the tests.
To induce the activation of macrophages, RAW 264.7 cells were treated with 200 ng/ ? lipopolysaccharide (LPS) while simultaneously treated with various concentrations (μg/ ? ) of a 100% methanol extract of Aucklandiae Radix (expressed by MeOH 100%), a 30% ethanol extract of Aucklandiae Radix (expressed by EtOH 30%), and a 70% ethanol extract of Aucklandiae Radix (expressed by EtOH 70%), and costunolide, and then the cells were cultured in a 37° C., 5% CO2 incubator for 18 hours. After 18 hours, 100 ? of the supernatant was transferred to a new plate for each group, and 100 ? of a solution, in which Griess reagent A (2% sulfanilamide in 5% phosphoric acid) and Greiss reagent B (0.2% naphthylethylenediamine dihydrochloride) were mixed at a rate of 1:1, was added thereto. Thereafter, the absorbance was measured at 540 nm.

prostate tissue = assay: Prostate pathology biopsy (H&E) in BPH model rats; format: in vivo, male Wistar rats; details: oral once a day, 8 weeks
Method: as §1
as §2, with “weeks. Positive control groups were used by oral administration of finasteride, which has been used as a medicine for benign prostatic hyperplasia.” for “weeks.”
After the completion of the test, the prostate tissue extracted from each group was fixed with 10% neutral formalin and stored. The tissue of each group was processed into paraffin blocks, and slides for microscopic inspection of tissue were manufactured and stained with hematoxylin & eosin (H&E). The microscopic inspection of tissue was conducted through a microscope (Olympus, Tokyo, Japan) at a magnification of X200.

RAW 264.7 cells [3] = assay: Inflammatory cytokine (IL-1β, IL-6, TNF-α) levels by ELISA in LPS-activated macrophages; format: cell-based; details: 200 ng LPS, various concentrations, 18 hours, vs cells treated with only LPS (FIG. 2)
Method: as §3
RAW 264.7 cells were treated with 200 ng/ ? LPS while simultaneously treated with various concentrations (μg/ ? ) of Aucklandiae Radix extracts (EtOH 30% and 70%) and costunolide, and then the cells were cultured in a 37° C., 5% CO2 incubator for 18 hours. After 18 hours, ELISA analysis kits (eBioScience 88-7013, 88-7064 USA, BD 555268 USA) were used to check the levels of the inflammatory cytokines IL-1β, IL-6, and TNF-α in the supernatant of each group.

[4] = format: in vivo, male Wistar rats
Method: as §1
as §2, with “weeks. Positive control groups were used by oral administration of finasteride, which has been used as a medicine for benign prostatic hyperplasia.” for “weeks.”
For analysis of biochemical markers in serum, blood was obtained through the abdominal vein from rats of all the groups at necropsy. The blood was coagulated for about 30 minutes, and then centrifuged for 5 minutes at 10,000 rpm to separate serum. After serum separation, a biochemistry analyzer (AU480, Beckman Coulter, USA) was used to check liver function (AST, ALP), lipoprotein (total cholesterol (T-CHO)), HDL cholesterol (HDL-C), LDL cholesterol (LDL-C)), and kidney function ([…]) levels (Table 3).

[5] = positive control group, oral, dose not given
[6] = oral 0.075 mg/kg once a day, 8 weeks

Speen weight [1, 5]: 0.60 g and 0.70 g
SMILES: CC(C)(C)NC(=O)[C@H]1CC[C@H]2[C@@H]3CC[C@H]4NC(=O)C=C[C@]4(C)[C@H]3CC[C@]12C [Fina, finasteride]
Body Weight (a) [1, 5]: 379 g and 415 g
Prostate Weight (b) [1, 5]: 1.23 g and 1.42 g
Prostate volume [1, 5]: 2,322 mm^3 and 4,255 mm^3
Ratio (b/a* 100) [1, 5]: 0.29 and 0.34

SMILES: C=C1C(=O)O[C@@H]2/C=C(\C)CC/C=C(\C)CC[C@@H]12 [costunolide]
amount of NO (RAW 264.7 cells [2]): significantly decreased
endothelial thicknesses of prostate tissue (H&E, X200) (prostate tissue; compared with the benign prostatic hyperplasia induced group (FIGS. 4 and 5)): significantly reduced
alveolar glands of prostate tissue (H&E, X200) (prostate tissue; similar to the normal control group (FIGS. 4 and 5)): maintained in a round shape without atrophy
prostate weights and volumes ([1]; costunolide administration groups, printed as 0.075 μg/, compared with finasteride administration groups (FIG. 3)): significant reduction effect
Body Weight (a) [1, 6]: 433 g
Liver weight [1, 6]: 10.72 g
Prostate Weight (b) [1, 6]: 1.40 g
Prostate volume [1, 6]: 4,126 mm^3
Speen weight [1, 6]: 0.62 g
Ratio (b/a* 100) [1, 6]: 0.32
secretion levels of the inflammatory cytokines (IL-1β, IL-6, TNF-α) (RAW 264.7 cells [3]): decreases
serum liver function, lipoprotein and kidney function levels (hepatoxicity and kidney toxicity) ([4]; BPH rats, oral once a day, 8 weeks, all administered groups): no significant changes
ALP ([4]; rat, in vivo, po, 0.075 mg/kg): 61.17 U/L
AST ([4]; rat, in vivo, po, 0.075 mg/kg): 78.33 U/L
CRE ([4]; rat, in vivo, po, 0.075 mg/kg): 0.27 mg/dL
HDL ([4]; rat, in vivo, po, 0.075 mg/kg): 51.50 mg/dL
LDL ([4]; rat, in vivo, po, 0.075 mg/kg): 13.17 mg/dL
T-CHO ([4]; rat, in vivo, po, 0.075 mg/kg): 79.67 mg/dL
